From publication PMC4685510, “A Cell Biologist’s Field Guide to Aurora Kinase Inhibitors” (Frontiers in Oncology, 2015)

Key:
Experiment in all cases: biochemical
Format in all cases: biochemical
[1] = target: 363 human kinases (including Aurora A/B/C) (Homo sapiens, UniProt P43405); conditions: SYK; for remaining activity at 0.1 µM: 100 nM; for remaining activity at 0.1 µM / remaining activity at 0.5 µM: read-out: % Enzyme Activity (relative to DMSO controls)
Excerpt: (§1) However, the Aurora A/B selectivity ratios derived from our in vitro and in vivo data can be compared to prioritize inhibitors.

[2] = target: 363 human kinases (including Aurora A/B/C) (Homo sapiens, UniProt P06239); conditions: LCK; for remaining activity at 0.1 µM: 100 nM; for remaining activity at 0.1 µM / remaining activity at 0.5 µM: read-out: % Enzyme Activity (relative to DMSO controls)
Excerpt: as §1

[3] = target: 363 human kinases (including Aurora A/B/C) (Homo sapiens, UniProt P07332); conditions: FES/FPS, [ATP] 50 µM; for remaining activity at 0.1 µM: 100 nM; for remaining activity at 0.1 µM / remaining activity at 0.5 µM: read-out: % Enzyme Activity (relative to DMSO controls)
Excerpt: as §1

[4] = target: T1, 363 human kinases (including Aurora A/B/C) (Homo sapiens, UniProt Q9UKI8); conditions: TLK1; for remaining activity at 0.1 µM: 100 nM; for remaining activity at 0.1 µM / remaining activity at 0.5 µM: read-out: % Enzyme Activity (relative to DMSO controls)
T1 sequence (Q9UKI8 1-766): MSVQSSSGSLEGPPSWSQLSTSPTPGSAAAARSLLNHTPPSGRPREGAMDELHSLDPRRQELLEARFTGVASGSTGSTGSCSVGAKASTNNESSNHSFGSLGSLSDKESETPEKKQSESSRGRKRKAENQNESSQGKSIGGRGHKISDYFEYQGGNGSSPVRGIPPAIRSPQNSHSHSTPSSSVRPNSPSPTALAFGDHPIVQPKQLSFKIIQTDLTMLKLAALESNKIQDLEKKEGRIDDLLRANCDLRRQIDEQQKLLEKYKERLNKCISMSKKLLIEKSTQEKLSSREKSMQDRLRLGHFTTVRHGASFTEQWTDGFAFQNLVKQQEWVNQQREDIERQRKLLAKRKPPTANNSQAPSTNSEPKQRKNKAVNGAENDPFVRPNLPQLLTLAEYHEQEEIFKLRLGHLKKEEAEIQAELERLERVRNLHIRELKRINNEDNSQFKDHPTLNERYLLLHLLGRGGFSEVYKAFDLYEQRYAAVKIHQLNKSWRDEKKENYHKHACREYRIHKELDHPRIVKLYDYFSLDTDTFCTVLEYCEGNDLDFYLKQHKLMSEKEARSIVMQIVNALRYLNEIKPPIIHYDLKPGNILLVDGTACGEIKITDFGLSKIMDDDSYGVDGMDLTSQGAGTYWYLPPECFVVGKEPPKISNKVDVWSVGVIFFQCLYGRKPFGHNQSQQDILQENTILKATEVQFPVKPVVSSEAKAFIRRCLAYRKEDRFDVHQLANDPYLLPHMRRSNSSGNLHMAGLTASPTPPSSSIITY
Excerpt: as §1

[5] = target: 363 human kinases (including Aurora A/B/C) (Homo sapiens, UniProt Q9NQU5); conditions: PAK6; for remaining activity at 0.1 µM: 100 nM; for remaining activity at 0.1 µM / remaining activity at 0.5 µM: read-out: % Enzyme Activity (relative to DMSO controls)
Excerpt: as §1

[6] = target: 363 human kinases (including Aurora A/B/C) (Homo sapiens, UniProt Q9Y2K2); conditions: SIK3; for remaining activity at 0.1 µM: 100 nM; for remaining activity at 0.1 µM / remaining activity at 0.5 µM: read-out: % Enzyme Activity (relative to DMSO controls)
Excerpt: as §1

[7] = target: 363 human kinases (including Aurora A/B/C) (Homo sapiens, UniProt Q8N568); conditions: DCAMKL2, [ATP] 100 µM; for remaining activity at 0.1 µM: 100 nM; for remaining activity at 0.1 µM / remaining activity at 0.5 µM: read-out: % Enzyme Activity (relative to DMSO controls)
Excerpt: as §1

[8] = target: 363 human kinases (including Aurora A/B/C) (Homo sapiens, UniProt P42684); conditions: ABL2/ARG, [ATP] 30 µM; for remaining activity at 0.1 µM: 100 nM; for remaining activity at 0.1 µM / remaining activity at 0.5 µM: read-out: % Enzyme Activity (relative to DMSO controls)
Excerpt: as §1

[9] = target: T2, 363 human kinases (including Aurora A/B/C) (Homo sapiens, UniProt Q96L34); conditions: MARK4; for remaining activity at 0.1 µM: 100 nM; for remaining activity at 0.1 µM / remaining activity at 0.5 µM: read-out: % Enzyme Activity (relative to DMSO controls)
T2 sequence (Q96L34 1-752): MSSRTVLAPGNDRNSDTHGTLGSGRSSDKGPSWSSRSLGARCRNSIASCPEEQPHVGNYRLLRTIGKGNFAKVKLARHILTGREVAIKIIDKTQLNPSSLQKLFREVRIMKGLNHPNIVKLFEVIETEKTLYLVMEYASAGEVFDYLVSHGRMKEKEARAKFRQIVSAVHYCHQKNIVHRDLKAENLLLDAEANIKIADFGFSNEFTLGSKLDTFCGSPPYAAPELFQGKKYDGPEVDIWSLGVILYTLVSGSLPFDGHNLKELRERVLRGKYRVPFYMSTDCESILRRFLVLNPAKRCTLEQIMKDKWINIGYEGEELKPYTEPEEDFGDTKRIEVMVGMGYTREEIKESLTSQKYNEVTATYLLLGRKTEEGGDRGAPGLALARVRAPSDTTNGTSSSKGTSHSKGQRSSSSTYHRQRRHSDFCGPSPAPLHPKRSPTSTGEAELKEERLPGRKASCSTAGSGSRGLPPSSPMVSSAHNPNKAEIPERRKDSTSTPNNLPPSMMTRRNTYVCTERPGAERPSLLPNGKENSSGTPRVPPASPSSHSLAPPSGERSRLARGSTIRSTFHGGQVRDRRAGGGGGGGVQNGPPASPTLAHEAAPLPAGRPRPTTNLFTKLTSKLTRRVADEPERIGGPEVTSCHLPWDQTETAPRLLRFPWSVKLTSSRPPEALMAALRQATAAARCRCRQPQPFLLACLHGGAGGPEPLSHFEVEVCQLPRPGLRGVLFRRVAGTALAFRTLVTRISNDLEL
Excerpt: as §1

[10] = target: 363 human kinases (including Aurora A/B/C) (Homo sapiens, UniProt P28482); conditions: ERK2/MAPK1, [ATP] 50 µM; for remaining activity at 0.1 µM: 100 nM; for remaining activity at 0.1 µM / remaining activity at 0.5 µM: read-out: % Enzyme Activity (relative to DMSO controls)
Excerpt: as §1

[11] = target: T3, 363 human kinases (including Aurora A/B/C) (Homo sapiens, UniProt O15530); conditions: PDK1/PDPK1; for remaining activity at 0.1 µM: 100 nM; for remaining activity at 0.1 µM / remaining activity at 0.5 µM: read-out: % Enzyme Activity (relative to DMSO controls)
T3 sequence (O15530 1-556): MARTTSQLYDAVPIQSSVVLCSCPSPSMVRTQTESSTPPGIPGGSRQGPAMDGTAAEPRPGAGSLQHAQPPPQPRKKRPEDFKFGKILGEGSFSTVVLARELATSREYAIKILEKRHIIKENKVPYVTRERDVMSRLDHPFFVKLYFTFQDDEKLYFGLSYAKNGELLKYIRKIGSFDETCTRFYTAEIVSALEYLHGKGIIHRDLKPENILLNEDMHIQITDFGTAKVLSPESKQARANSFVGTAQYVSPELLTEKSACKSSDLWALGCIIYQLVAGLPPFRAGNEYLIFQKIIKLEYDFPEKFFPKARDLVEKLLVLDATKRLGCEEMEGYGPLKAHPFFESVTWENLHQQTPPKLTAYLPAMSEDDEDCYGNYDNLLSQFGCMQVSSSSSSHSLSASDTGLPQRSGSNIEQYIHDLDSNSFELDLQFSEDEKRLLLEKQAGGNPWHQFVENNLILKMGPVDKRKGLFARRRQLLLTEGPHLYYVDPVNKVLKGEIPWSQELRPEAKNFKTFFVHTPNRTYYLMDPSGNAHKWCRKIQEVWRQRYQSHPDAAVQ
Excerpt: as §1

363 human kinases (including Aurora A/B/C) (Homo sapiens, UniProt P07332), sequence (P07332 whole entry): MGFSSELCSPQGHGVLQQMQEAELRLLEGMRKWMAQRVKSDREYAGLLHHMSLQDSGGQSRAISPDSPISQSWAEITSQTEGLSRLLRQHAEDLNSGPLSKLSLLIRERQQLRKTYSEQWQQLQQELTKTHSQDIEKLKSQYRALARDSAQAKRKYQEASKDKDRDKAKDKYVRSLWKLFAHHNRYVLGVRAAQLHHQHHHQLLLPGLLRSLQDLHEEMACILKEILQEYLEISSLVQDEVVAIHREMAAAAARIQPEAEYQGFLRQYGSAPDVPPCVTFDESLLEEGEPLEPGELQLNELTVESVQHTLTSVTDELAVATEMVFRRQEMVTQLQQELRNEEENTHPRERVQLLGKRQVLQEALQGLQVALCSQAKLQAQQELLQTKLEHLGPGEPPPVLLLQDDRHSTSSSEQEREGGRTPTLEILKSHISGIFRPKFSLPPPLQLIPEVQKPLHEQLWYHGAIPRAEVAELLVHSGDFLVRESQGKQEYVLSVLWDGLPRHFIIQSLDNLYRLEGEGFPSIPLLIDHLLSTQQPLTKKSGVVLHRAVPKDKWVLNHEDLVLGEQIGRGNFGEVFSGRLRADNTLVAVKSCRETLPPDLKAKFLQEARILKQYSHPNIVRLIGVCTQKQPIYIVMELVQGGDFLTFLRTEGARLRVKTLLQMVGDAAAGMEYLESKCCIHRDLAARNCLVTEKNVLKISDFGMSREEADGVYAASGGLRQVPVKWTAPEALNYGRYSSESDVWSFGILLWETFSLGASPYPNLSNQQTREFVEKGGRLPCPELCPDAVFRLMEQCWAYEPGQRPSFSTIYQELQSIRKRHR
363 human kinases (including Aurora A/B/C) (Homo sapiens, UniProt P28482), sequence (P28482 whole entry): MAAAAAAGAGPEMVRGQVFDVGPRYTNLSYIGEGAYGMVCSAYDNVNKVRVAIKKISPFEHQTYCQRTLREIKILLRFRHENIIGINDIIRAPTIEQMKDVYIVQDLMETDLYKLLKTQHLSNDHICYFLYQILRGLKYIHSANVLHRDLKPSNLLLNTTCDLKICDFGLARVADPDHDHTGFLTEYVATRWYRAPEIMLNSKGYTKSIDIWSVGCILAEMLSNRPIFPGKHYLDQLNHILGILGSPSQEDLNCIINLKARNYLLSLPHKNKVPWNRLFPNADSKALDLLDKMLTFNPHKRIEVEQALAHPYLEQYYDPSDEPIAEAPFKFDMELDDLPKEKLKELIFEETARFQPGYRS
363 human kinases (including Aurora A/B/C) (Homo sapiens, UniProt Q9Y2K2), sequence (Q9Y2K2 whole entry): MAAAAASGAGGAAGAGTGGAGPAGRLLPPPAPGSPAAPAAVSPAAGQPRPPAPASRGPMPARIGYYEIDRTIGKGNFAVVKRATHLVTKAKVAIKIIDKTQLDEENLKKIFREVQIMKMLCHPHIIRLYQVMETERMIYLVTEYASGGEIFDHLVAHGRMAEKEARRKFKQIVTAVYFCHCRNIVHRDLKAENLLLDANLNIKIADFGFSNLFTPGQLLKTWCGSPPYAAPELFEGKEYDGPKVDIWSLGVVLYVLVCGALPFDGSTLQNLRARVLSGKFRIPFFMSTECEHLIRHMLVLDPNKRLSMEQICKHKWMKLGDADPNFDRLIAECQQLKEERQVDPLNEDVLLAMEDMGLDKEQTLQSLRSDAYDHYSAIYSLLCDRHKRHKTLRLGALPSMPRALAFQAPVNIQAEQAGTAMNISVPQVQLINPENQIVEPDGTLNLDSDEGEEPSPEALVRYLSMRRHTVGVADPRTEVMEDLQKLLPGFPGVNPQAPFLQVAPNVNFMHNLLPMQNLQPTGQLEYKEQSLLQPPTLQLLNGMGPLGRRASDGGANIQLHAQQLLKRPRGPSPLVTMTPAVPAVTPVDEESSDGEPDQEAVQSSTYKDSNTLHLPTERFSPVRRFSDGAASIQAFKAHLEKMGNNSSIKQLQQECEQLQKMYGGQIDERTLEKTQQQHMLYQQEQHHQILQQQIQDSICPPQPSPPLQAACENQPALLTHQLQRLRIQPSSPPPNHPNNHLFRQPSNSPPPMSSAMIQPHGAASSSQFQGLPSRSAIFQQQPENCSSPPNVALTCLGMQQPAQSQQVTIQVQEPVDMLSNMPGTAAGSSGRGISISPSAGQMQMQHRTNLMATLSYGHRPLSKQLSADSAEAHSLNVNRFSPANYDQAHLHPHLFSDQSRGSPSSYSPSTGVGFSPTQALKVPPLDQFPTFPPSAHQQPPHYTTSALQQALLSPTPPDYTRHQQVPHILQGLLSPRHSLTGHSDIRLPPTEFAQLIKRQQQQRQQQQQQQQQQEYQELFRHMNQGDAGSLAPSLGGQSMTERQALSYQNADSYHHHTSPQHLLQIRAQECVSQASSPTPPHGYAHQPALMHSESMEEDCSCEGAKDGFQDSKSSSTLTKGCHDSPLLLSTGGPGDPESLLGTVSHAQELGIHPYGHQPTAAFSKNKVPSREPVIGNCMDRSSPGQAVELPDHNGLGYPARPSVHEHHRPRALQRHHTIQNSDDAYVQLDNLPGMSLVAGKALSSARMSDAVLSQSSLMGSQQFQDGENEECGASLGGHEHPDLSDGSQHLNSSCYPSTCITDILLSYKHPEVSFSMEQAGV
363 human kinases (including Aurora A/B/C) (Homo sapiens, UniProt P06239), sequence (P06239 whole entry): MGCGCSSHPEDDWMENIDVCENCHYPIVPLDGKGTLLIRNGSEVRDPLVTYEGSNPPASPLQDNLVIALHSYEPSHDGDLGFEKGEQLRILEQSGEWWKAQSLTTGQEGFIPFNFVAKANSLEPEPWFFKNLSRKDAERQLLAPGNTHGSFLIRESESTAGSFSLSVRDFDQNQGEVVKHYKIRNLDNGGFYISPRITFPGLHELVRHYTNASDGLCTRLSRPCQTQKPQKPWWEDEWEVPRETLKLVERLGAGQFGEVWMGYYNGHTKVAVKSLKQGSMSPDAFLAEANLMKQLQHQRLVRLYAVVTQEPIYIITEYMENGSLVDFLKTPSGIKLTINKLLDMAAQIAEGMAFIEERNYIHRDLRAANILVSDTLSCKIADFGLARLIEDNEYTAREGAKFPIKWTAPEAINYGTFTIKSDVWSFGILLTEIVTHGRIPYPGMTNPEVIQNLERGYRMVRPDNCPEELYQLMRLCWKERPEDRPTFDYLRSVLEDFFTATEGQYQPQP
363 human kinases (including Aurora A/B/C) (Homo sapiens, UniProt P42684), sequence (P42684 whole entry): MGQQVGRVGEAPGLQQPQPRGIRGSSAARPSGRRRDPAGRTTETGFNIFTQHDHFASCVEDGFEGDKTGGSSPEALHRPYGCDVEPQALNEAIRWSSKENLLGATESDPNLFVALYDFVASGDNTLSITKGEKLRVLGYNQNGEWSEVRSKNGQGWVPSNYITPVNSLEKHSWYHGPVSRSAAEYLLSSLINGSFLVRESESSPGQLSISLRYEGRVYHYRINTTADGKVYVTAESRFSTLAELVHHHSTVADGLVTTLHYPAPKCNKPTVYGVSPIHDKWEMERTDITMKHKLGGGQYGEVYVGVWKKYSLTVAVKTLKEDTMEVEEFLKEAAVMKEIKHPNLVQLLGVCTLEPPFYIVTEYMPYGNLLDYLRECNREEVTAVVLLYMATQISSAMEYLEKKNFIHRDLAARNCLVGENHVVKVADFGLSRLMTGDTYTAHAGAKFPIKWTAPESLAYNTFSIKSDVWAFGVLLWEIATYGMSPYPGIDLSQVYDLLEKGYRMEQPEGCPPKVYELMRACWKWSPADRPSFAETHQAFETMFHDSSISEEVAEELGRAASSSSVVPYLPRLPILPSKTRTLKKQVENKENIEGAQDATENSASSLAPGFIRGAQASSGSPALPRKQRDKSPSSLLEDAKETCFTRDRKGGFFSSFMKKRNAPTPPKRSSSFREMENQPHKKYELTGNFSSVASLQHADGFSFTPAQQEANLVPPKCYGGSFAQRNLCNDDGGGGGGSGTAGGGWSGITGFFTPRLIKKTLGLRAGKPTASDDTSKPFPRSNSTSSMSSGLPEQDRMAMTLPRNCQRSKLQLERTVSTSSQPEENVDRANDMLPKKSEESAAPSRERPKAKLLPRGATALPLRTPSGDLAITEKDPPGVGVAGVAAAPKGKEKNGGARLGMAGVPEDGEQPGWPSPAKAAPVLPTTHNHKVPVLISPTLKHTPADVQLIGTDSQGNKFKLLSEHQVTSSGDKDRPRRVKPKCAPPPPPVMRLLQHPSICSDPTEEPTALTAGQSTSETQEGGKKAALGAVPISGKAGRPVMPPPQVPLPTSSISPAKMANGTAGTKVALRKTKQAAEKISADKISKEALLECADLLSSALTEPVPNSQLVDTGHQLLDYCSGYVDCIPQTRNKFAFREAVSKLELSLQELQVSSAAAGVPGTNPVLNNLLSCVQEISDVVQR
363 human kinases (including Aurora A/B/C) (Homo sapiens, UniProt Q8N568), sequence (Q8N568 whole entry): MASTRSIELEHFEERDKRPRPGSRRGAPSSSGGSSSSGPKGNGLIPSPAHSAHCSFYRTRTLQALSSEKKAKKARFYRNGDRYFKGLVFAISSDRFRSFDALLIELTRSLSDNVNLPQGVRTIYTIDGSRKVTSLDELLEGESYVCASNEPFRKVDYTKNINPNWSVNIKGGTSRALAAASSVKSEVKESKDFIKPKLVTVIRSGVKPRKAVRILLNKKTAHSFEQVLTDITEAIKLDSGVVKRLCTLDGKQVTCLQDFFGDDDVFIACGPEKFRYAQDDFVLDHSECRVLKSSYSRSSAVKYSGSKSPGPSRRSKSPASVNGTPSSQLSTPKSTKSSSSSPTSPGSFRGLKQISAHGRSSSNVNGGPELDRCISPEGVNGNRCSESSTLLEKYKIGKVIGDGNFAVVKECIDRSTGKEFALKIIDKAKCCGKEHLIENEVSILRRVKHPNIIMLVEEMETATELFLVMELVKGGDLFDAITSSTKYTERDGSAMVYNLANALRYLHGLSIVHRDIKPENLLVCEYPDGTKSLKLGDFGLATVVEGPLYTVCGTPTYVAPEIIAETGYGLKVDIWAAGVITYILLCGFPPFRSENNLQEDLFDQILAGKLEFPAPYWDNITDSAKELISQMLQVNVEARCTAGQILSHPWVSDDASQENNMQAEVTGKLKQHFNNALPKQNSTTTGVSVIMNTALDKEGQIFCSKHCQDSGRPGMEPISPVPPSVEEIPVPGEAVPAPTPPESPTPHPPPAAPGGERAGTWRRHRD

Structure (SMILES) | remaining activity at 0.1 µM [1] [%] | remaining activity at 0.1 µM [2] [%] | remaining activity at 0.1 µM [3] [%] | remaining activity at 0.1 µM [4] [%] | remaining activity at 0.1 µM [5] [%] | remaining activity at 0.1 µM [6] [%] | remaining activity at 0.1 µM [7] [%] | remaining activity at 0.1 µM [8] [%] | remaining activity at 0.1 µM [9] [%] | remaining activity at 0.1 µM [10] [%] | remaining activity at 0.1 µM [11] [%] | remaining activity at 0.5 µM ([1]; 500 nM) [%] | remaining activity at 0.5 µM ([2]; 500 nM) [%] | remaining activity at 0.5 µM ([3]; 500 nM) [%] | remaining activity at 0.5 µM ([4]; 500 nM) [%] | remaining activity at 0.5 µM ([5]; 500 nM) [%] | remaining activity at 0.5 µM ([6]; 500 nM) [%] | remaining activity at 0.5 µM ([7]; 500 nM) [%] | remaining activity at 0.5 µM ([8]; 500 nM) [%] | remaining activity at 0.5 µM ([9]; 500 nM) [%] | further results
CCn1cc(-c2ccnc3[nH]c(-c4cccc(CN(C)C)c4)cc23)c(-c2ccc(NC(=O)N(C)C)cc2)n1 [GSK1070916] | 84.8 | 72.8 | 90 | 120 | 103 | 87.8 | 91.5 | 94.2 | 111 | 101 | 94 |  |  |  |  |  |  |  |  |  | 
O=C(O)[C@]1(Cc2cccc(Nc3nccs3)n2)CC[C@@H](Oc2cccc(Cl)c2F)CC1 [MK-5108] | 93.8 | 62.3 | 96 | 95.7 | 99.8 | 97.3 | 98.2 | 12.2 | 106 | 98.4 | 98.7 | 63.6 | 16.6 | 73.7 | 116 | 97 | 103 | 96.3 | 2.32 | 101 | remaining activity at 0.5 µM ([10]; 500 nM): 106%; remaining activity at 0.5 µM ([11]; 500 nM): 88.8%
O=C(c1cccc(Cl)c1F)N1CCN(Cc2cccc(Nc3nccs3)n2)CC1 [MK-8745] |  |  |  |  |  |  |  |  |  |  |  | 83.2 | 53 | 86 | 125 | 90.3 | 93.5 | 96 | 85.8 | 105 | % Enzyme Activity (relative to DMSO controls) ([1]; 500 nM): 82.70%; % Enzyme Activity (relative to DMSO controls) ([2]; 500 nM): 50.49%; % Enzyme Activity (relative to DMSO controls) ([3]; 500 nM): 85.63%; % Enzyme Activity (relative to DMSO controls) ([4]; 500 nM): 119.91%; % Enzyme Activity (relative to DMSO controls) ([5]; 500 nM): 89.27%; % Enzyme Activity (relative to DMSO controls) ([6]; 500 nM): 91.26%; % Enzyme Activity (relative to DMSO controls) ([7]; 500 nM): 95.95%; % Enzyme Activity (relative to DMSO controls) ([8]; 500 nM): 85.19%; % Enzyme Activity (relative to DMSO controls) ([9]; 500 nM): 102.33%; % Enzyme Activity (relative to DMSO controls) ([10]; 500 nM): 103.36%; remaining activity at 0.5 µM ([10]; 500 nM): 104%; % Enzyme Activity (relative to DMSO controls) ([11]; 500 nM): 93.63%; remaining activity at 0.5 µM ([11]; 500 nM): 94.7%
